Measured values taken from the supplement of paper PMC4862054.

system: MFM-223; test: normalised viability (% of control), CellTiter-Blue; higher = more viable cells (about 100 = DMSO control); settings: 10000 nM; incubation time: 72 h
Outline: (§1)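 Breast cancer cell lines in 20 µl suspension were seeded onto 384-well plates pre-loaded with compound dissolved in 5 µl medium, then incubated 72 h. CellTiter-Blue reagent (2.5 µl) was added for 2 h at 37 °C and fluorescence read at 560/590 nm. Each plate was normalised to vehicle (100) and a positive kill control (0), with Z'-factor quality control. The value is normalised viability at one listed concentration of the series.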

Structure (SMILES) | normalised viability [%]
COc1cc(F)c(F)c(Nc2ccc(I)cc2F)c1NS(=O)(=O)C1(C[C@H](O)CO)CC1 [RDEA119] | 54.7

same assay, conditions: 40000 nM; incubation time: 72 h

Structure (SMILES) | normalised viability [%]
CC[C@@H]1C(=O)OC[C@@H]1Cc1cncn1C [Pilocarpine] | 63.7

system: SK-BR-3; test: as above; settings: 0.99 nM; incubation time: 72 h
Outline: as §1

Structure (SMILES) | normalised viability [%]
C[C@]12CC[C@@H]3c4ccc(OC(=O)N(CCCl)CCCl)cc4CC[C@H]3[C@@H]1CC[C@@H]2O [Estramustine] | 99.1

same assay, conditions: 10 nM; incubation time: 72 h

Structure (SMILES) | normalised viability [%]
CC(=O)c1c(C)c2cnc(Nc3ccc(N4CCNCC4)cn3)nc2n(C2CCCC2)c1=O | 100
Oc1ncnc2[nH]ncc12 [Allopurinol] | 100
O=C1CN2Cc3c(ccc(Cl)c3Cl)N=C2N1 [Anagrelide] | 119
CC1=C2C[C@H]3[C@@H](CC=C4C[C@@H](O)CC[C@@]43C)[C@@H]2CC[C@]12O[C@@H]1C[C@H](C)CN[C@H]1[C@H]2C [Cyclopamine] | 103
C[C@]1(O)C[C@@H](c2nc(-c3ccc4ccc(-c5ccccc5)nc4c3)c3c(N)nccn32)C1 [OSI-906] | 88.7
COc1cc(F)c(F)c(Nc2ccc(I)cc2F)c1NS(=O)(=O)C1(C[C@H](O)CO)CC1 [RDEA119] | 110

same assay, conditions: 40 nM; incubation time: 72 h

Structure (SMILES) | normalised viability [%]
CC[C@@H]1C(=O)OC[C@@H]1Cc1cncn1C [Pilocarpine] | 106

same assay, conditions: 99 nM; incubation time: 72 h

Structure (SMILES) | normalised viability [%]
C[C@]12CC[C@@H]3c4ccc(OC(=O)N(CCCl)CCCl)cc4CC[C@H]3[C@@H]1CC[C@@H]2O [Estramustine] | 97.5

same assay, conditions: 990 nM; incubation time: 72 h

Structure (SMILES) | normalised viability [%]
C[C@]12CC[C@@H]3c4ccc(OC(=O)N(CCCl)CCCl)cc4CC[C@H]3[C@@H]1CC[C@@H]2O [Estramustine] | 101

same assay, conditions: 1000 nM; incubation time: 72 h

Structure (SMILES) | normalised viability [%]
CC(=O)c1c(C)c2cnc(Nc3ccc(N4CCNCC4)cn3)nc2n(C2CCCC2)c1=O | 110
Oc1ncnc2[nH]ncc12 [Allopurinol] | 103
O=C1CN2Cc3c(ccc(Cl)c3Cl)N=C2N1 [Anagrelide] | 110
CC1=C2C[C@H]3[C@@H](CC=C4C[C@@H](O)CC[C@@]43C)[C@@H]2CC[C@]12O[C@@H]1C[C@H](C)CN[C@H]1[C@H]2C [Cyclopamine] | 123
C[C@]1(O)C[C@@H](c2nc(-c3ccc4ccc(-c5ccccc5)nc4c3)c3c(N)nccn32)C1 [OSI-906] | 79.7
COc1cc(F)c(F)c(Nc2ccc(I)cc2F)c1NS(=O)(=O)C1(C[C@H](O)CO)CC1 [RDEA119] | 81.8

same assay, conditions: 4000 nM; incubation time: 72 h

Structure (SMILES) | normalised viability [%]
CC[C@@H]1C(=O)OC[C@@H]1Cc1cncn1C [Pilocarpine] | 115

same assay, conditions: 10000 nM; incubation time: 72 h

Structure (SMILES) | normalised viability [%]
CC(=O)c1c(C)c2cnc(Nc3ccc(N4CCNCC4)cn3)nc2n(C2CCCC2)c1=O | 63.5
Oc1ncnc2[nH]ncc12 [Allopurinol] | 105
O=C1CN2Cc3c(ccc(Cl)c3Cl)N=C2N1 [Anagrelide] | 107
CC1=C2C[C@H]3[C@@H](CC=C4C[C@@H](O)CC[C@@]43C)[C@@H]2CC[C@]12O[C@@H]1C[C@H](C)CN[C@H]1[C@H]2C [Cyclopamine] | 103
C[C@]1(O)C[C@@H](c2nc(-c3ccc4ccc(-c5ccccc5)nc4c3)c3c(N)nccn32)C1 [OSI-906] | 54.3
COc1cc(F)c(F)c(Nc2ccc(I)cc2F)c1NS(=O)(=O)C1(C[C@H](O)CO)CC1 [RDEA119] | 100

same assay, conditions: 40000 nM; incubation time: 72 h

Structure (SMILES) | normalised viability [%]
CC[C@@H]1C(=O)OC[C@@H]1Cc1cncn1C [Pilocarpine] | 136

system: CAL-85-1; test: as above; settings: 0.297 nM; incubation time: 72 h
Outline: as §1

Structure (SMILES) | normalised viability [%]
C[C@]12CC[C@@H]3c4ccc(OC(=O)N(CCCl)CCCl)cc4CC[C@H]3[C@@H]1CC[C@@H]2O [Estramustine] | 100

same assay, conditions: 2.97 nM; incubation time: 72 h

Structure (SMILES) | normalised viability [%]
C[C@]12CC[C@@H]3c4ccc(OC(=O)N(CCCl)CCCl)cc4CC[C@H]3[C@@H]1CC[C@@H]2O [Estramustine] | 90.9

same assay, conditions: 3 nM; incubation time: 72 h

Structure (SMILES) | normalised viability [%]
CC(=O)c1c(C)c2cnc(Nc3ccc(N4CCNCC4)cn3)nc2n(C2CCCC2)c1=O | 96.2
Oc1ncnc2[nH]ncc12 [Allopurinol] | 109
O=C1CN2Cc3c(ccc(Cl)c3Cl)N=C2N1 [Anagrelide] | 102
CC1=C2C[C@H]3[C@@H](CC=C4C[C@@H](O)CC[C@@]43C)[C@@H]2CC[C@]12O[C@@H]1C[C@H](C)CN[C@H]1[C@H]2C [Cyclopamine] | 104
C[C@]1(O)C[C@@H](c2nc(-c3ccc4ccc(-c5ccccc5)nc4c3)c3c(N)nccn32)C1 [OSI-906] | 97.3
COc1cc(F)c(F)c(Nc2ccc(I)cc2F)c1NS(=O)(=O)C1(C[C@H](O)CO)CC1 [RDEA119] | 95.2

same assay, conditions: 9.9 nM; incubation time: 72 h

Structure (SMILES) | normalised viability [%]
C[C@]12CC[C@@H]3c4ccc(OC(=O)N(CCCl)CCCl)cc4CC[C@H]3[C@@H]1CC[C@@H]2O [Estramustine] | 101

same assay, conditions: 12 nM; incubation time: 72 h

Structure (SMILES) | normalised viability [%]
CC[C@@H]1C(=O)OC[C@@H]1Cc1cncn1C [Pilocarpine] | 98.1

same assay, conditions: 30 nM; incubation time: 72 h

Structure (SMILES) | normalised viability [%]
CC(=O)c1c(C)c2cnc(Nc3ccc(N4CCNCC4)cn3)nc2n(C2CCCC2)c1=O | 102
Oc1ncnc2[nH]ncc12 [Allopurinol] | 98
O=C1CN2Cc3c(ccc(Cl)c3Cl)N=C2N1 [Anagrelide] | 84.7
CC1=C2C[C@H]3[C@@H](CC=C4C[C@@H](O)CC[C@@]43C)[C@@H]2CC[C@]12O[C@@H]1C[C@H](C)CN[C@H]1[C@H]2C [Cyclopamine] | 91.9
C[C@]1(O)C[C@@H](c2nc(-c3ccc4ccc(-c5ccccc5)nc4c3)c3c(N)nccn32)C1 [OSI-906] | 85.7
COc1cc(F)c(F)c(Nc2ccc(I)cc2F)c1NS(=O)(=O)C1(C[C@H](O)CO)CC1 [RDEA119] | 98.8

same assay, conditions: 100 nM; incubation time: 72 h

Structure (SMILES) | normalised viability [%]
CC(=O)c1c(C)c2cnc(Nc3ccc(N4CCNCC4)cn3)nc2n(C2CCCC2)c1=O | 91.4
Oc1ncnc2[nH]ncc12 [Allopurinol] | 106
O=C1CN2Cc3c(ccc(Cl)c3Cl)N=C2N1 [Anagrelide] | 97.1
CC1=C2C[C@H]3[C@@H](CC=C4C[C@@H](O)CC[C@@]43C)[C@@H]2CC[C@]12O[C@@H]1C[C@H](C)CN[C@H]1[C@H]2C [Cyclopamine] | 99.9
